Data set [1] can be described thus: Dynamic Vapour Sorption (DVS) moisture sorption isotherm. The class given is physicochemical. Particulars: for total uptake of water vapours: DVS, 25° C., relative humidity 0% to 95% in steps of 5%, 1 h per step. As for the experimental part: Moisture sorption isotherms were measured using a DVS-1 system of Surface Measurement Systems (London, UK). Differences in moisture uptake of various forms of a solid material indicate differences in the relative stabilities of the various solid forms for increasing relative humidity. The experiment was carried out at a constant temperature of 25° C.
A sample of about 11.5 mg of form TDFA 2:1 was spread in the DVS pan. The sample was dried at 0% RH for 7 h. Subsequently the relative humidity of the chamber was increased in steps of 5% units from 0% to 95% in order to monitor the sorption of water vapours. The samples remained in each of the steps for 1 h. Following, desorption was monitored by decreasing the relative humidity to 0% in steps of 5% units and remaining at each step for 1 h. The total uptake of water vapours was about 0.8%, which is line with the industry standard for hygroscopicity. In a similar DVS experiment using the starting material as purchased, the total vapour intake was about 4%, which is undesirable in formulation and requires additional measures.

Data set [2] in a line: Comparative pharmacokinetic study of TDFA 2:1 and ULT 1 (plasma tenofovir by LC-MS-MS). Format: in vivo, Male wistar rats. To be noted: rats, one capsule of approximately 15 mg by oral gavage; compared with fumarate salt form ULT 1; FIG. 5. From the text: The plasma samples were further worked up for analysis by LC-MS-MS for their content of tenofovir. […] The concentration of tenofovir (the active metabolite of tenofovir DF) was quantified in each sample by means of LC-MS-MS against a calibration curve. From the PK data it is concluded that the hemifumarate co-crystal of tenofovir disoproxil, TDFA 2:1 is bioequivalent to the fumarate salt of tenofovir disoproxil form ULT 1, which is a commercially available fumarate salt of tenofovir disoproxil.

Setting [3] is: summary statement, versus Gilead 1.

Data on two compounds can be found in US20090176983A1, “Tenofovir Disoproxil Hemi-Fumaric Acid Co-Crystal” (ULTIMORPHIX TECHNOLOGIES B.V., priority 2007, published 2009).

Consider `CC(C)OC(=O)OCOP(=O)(CO[C@H](C)Cn1cnc2c(N)ncnc21)OCOC(=O)OC(C)C.O=C(O)/C=C/C(=O)O` [starting material, 9-[(R)-2-[[bis[[(isopropoxycarbonyl)oxy]methoxy]phosphinyl]-methoxy]propyl]adenine fumarate (1:1), reference compound], for which, in data set [1], the “total uptake of water vapours” value is given as “about 4%”.

On to “co-crystal of tenofovir disoproxil and fumaric acid in a 2:1 molar ratio [TDFA 2:1]”, for which the “total uptake of water vapours” value in data set [1] is on record as “about 0.8%”. In addition, the “changes in the structure by XRPD at the end of the DVS experiment” value in data set [1] (solid material after the sorption-desorption cycle, FIG. 4) was “no any changes in the structure”. For the same compound, in data set [1] (setting [3]), the “hygroscopicity compared with known crystalline form of tenofovir DF (Gilead 1)” value is listed as “less hygroscopic” and the “stability compared with known crystalline form of tenofovir DF (Gilead 1)” value was “more stable”. The “bioequivalence from PK data (concentration of tenofovir in plasma)” value in data set [2] was “bioequivalent”.
